Measurements published in ChEMBL document CHEMBL3879915, “Methods of inhibiting PRMT5” (2014).

Experiments:
[1] = target: Protein arginine N-methyltransferase 5 (Homo sapiens, UniProt O14744); assay: Inhibition of PRMT5 in human Z138 cells assessed as decrease in di-methyl arginine levels after 96 hrs by Western blot method; format: cell-based
[2] = Antiproliferative activity against human Z138 cells assessed as inhibition of cell viability after 5 days by Cell-Titer Glo assay; format: functional, cell-based; conditions: Z-138, 120 h
PRMT5/MEP50 complex = PRMT5/MEP50 complex (Homo sapiens, UniProt O14744); assay: Inhibition of recombinant human fetal brain FLAG-tagged PRMT5/full length human testis 6His-tagged MEP50 expressed in baculovirus infected insect Sf9 cells using human histone H4 (1 to 15 residues) as substrate preincubated for 30 mins followed by [3H]-SAM addition
Sequence of PRMT5/MEP50 complex (O14744 whole entry, the tested form may be a part): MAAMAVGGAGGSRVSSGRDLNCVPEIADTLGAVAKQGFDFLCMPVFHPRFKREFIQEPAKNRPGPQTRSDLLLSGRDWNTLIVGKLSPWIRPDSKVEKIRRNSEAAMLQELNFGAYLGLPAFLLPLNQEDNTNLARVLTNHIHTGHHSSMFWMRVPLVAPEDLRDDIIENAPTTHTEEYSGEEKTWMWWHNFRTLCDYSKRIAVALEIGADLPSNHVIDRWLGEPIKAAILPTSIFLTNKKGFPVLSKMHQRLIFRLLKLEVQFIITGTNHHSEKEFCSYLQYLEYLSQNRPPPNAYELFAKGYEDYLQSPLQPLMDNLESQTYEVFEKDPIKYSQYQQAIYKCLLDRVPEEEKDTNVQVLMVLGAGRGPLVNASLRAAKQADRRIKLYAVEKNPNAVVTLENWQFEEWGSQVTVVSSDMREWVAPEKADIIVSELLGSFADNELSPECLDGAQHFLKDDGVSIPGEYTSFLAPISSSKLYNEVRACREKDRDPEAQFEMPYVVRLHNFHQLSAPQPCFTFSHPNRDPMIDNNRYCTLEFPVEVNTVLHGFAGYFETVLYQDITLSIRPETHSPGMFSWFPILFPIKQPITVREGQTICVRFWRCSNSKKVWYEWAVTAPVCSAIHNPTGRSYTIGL
Sequence of PRMT5/MEP50 complex (Q9BQA1 whole entry, further chain, the tested form may be a part): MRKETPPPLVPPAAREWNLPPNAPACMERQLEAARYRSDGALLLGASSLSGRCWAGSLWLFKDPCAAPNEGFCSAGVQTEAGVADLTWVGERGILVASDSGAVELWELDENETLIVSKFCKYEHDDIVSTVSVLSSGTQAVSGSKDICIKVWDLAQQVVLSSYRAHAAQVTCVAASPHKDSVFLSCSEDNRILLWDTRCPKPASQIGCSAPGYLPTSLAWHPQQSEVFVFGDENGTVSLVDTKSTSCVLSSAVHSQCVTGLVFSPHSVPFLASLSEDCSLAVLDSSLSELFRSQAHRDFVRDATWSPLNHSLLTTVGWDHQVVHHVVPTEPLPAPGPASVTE

Sequence of Protein arginine N-methyltransferase 5 (O14744 whole entry): as the sequence (O14744 whole entry, the tested form may be a part) above

Row | SMILES | EC50 [1] [nM] | IC50 (PRMT5/MEP50 complex) [nM] | EC50 [2] [nM]
1 | CC(=O)Nc1ccc(OCC(=O)NCC(O)CN2CCc3ccccc3C2)cc1 (configuration not stated) | 101 to 1000 | 101 to 1000 | > 20000
2 | CN1CCC(n2ncc3ccc(OCC(=O)NCC(O)CN4CCc5ccccc5C4)cc32)CC1 (configuration not stated) | 101 to 1000 | < 100 | > 20000
3 | CS(=O)(=O)c1cccc(OCC(=O)NCC(O)CN2CCc3ccccc3C2)c1 (configuration not stated) | 101 to 1000 | < 100 | 1000 to 10000
4 | COc1cccc(OCC(=O)NCC(O)CN2CCc3ccccc3C2)c1 (configuration not stated) | 101 to 1000 | < 100 | 1000 to 10000
5 | CC(Oc1ccccc1)C(=O)NCC(O)CN1CCc2ccccc2C1 (configuration not stated) | 101 to 1000 | < 100 | 1000 to 10000
6 | O=C(COc1ccccc1-c1cc[nH]n1)NC[C@@H](O)CN1CCc2ccccc2C1 | < 100 | < 100 | 1000 to 10000
7 | COc1ccccc1OCC(=O)NCC(O)CN1CCc2ccccc2C1 (configuration not stated) | 101 to 1000 | < 100 | 1000 to 10000
8 | Cc1cccc(OCC(=O)NCC(O)CN2CCc3ccccc3C2)c1 (configuration not stated) | 101 to 1000 | < 100 | 1000 to 10000
9 | O=C(COc1ccccc1C1CCCCC1)NCC(O)CN1CCc2ccccc2C1 (configuration not stated) | 101 to 1000 | < 100 | 1000 to 10000
10 | O=C(CNc1ccccc1)NCC(O)CN1CCc2ccccc2C1 (configuration not stated) | 1000 to 10000 | 1000 to 10000 | > 20000
11 | CN(C)c1ccccc1OCC(=O)NCC(O)CN1CCc2ccccc2C1 (configuration not stated) | < 100 | < 100 | 1000 to 10000
12 | CN1C(=O)COc2cccc(OCC(=O)NCC(O)CN3CCc4ccccc4C3)c21 (configuration not stated) | 101 to 1000 | < 100 | 10000 to 50000
13 | CS(=O)(=O)c1ccccc1OCC(=O)NCC(O)CN1CCc2ccccc2C1 (configuration not stated) | < 100 | < 100 | 1000 to 10000
14 | CC(=O)N1CCN(c2ccccc2OCC(=O)NCC(O)CN2CCc3ccccc3C2)CC1 (configuration not stated) | 101 to 1000 | < 100 | 10000 to 50000
15 | O=C(COc1ccccc1-c1cc[nH]n1)NC[C@H](O)CN1CCc2ccccc2C1 | 101 to 1000 | < 100 | > 20000
16 | CS(=O)(=O)Nc1cccc(OCC(=O)NCC(O)CN2CCc3ccccc3C2)c1 (configuration not stated) | 101 to 1000 | < 100 | 1000 to 10000

Row | SMILES | EC50 [1] [nM] | IC50 (PRMT5/MEP50 complex) [nM] | EC50 [2] [nM]
17 | CC(=O)Nc1ccccc1OCC(=O)NCC(O)CN1CCc2ccccc2C1 (configuration not stated) | 101 to 1000 | 101 to 1000 | > 20000
18 | O=C(COc1cccc2c1CCNC2)NCC(O)CN1CCc2ccccc2C1 (configuration not stated) | 101 to 1000 | < 100 | 1000 to 10000
19 | CN(C)CCOc1ccccc1OCC(=O)NC[C@H](O)CN1CCc2ccccc2C1 | 101 to 1000 | < 100 | 10000 to 50000
20 | O=C(COc1cccc2c1CCCC2)NCC(O)CN1CCc2ccccc2C1 (configuration not stated) | 101 to 1000 | < 100 | 1000 to 10000
21 | NS(=O)(=O)c1ccccc1OCC(=O)NCC(O)CN1CCc2ccccc2C1 (configuration not stated) | 101 to 1000 | < 100 | 1000 to 10000
22 | NC(=O)c1ccccc1OCC(=O)NCC(O)CN1CCc2ccccc2C1 (configuration not stated) | 101 to 1000 | 101 to 1000 | > 20000
23 | CC(=O)Nc1cccc(OCC(=O)NCC(O)CN2CCc3ccccc3C2)c1 (configuration not stated) | 101 to 1000 | 1000 to 10000 | 10000 to 50000
24 | O=C(COc1cccc2cccnc12)NC[C@@H](O)CN1CCc2ccccc2C1 | < 100 | < 100 | 101 to 1000
25 | O=C(COc1cccc2cccnc12)NC[C@H](O)CN1CCc2ccccc2C1 | 101 to 1000 | 101 to 1000 | 10000 to 50000
26 | CS(=O)(=O)Nc1ccc(OCC(=O)NCC(O)CN2CCc3ccccc3C2)cc1 (configuration not stated) | 101 to 1000 | 101 to 1000 | > 20000
27 | CS(=O)(=O)Nc1ccccc1OCC(=O)NCC(O)CN1CCc2ccccc2C1 (configuration not stated) | 101 to 1000 | < 100 | 1000 to 10000
28 | O=C(COc1ccccc1-c1cc[nH]n1)NCC(O)CN1CCc2ccccc2C1 (configuration not stated) | < 100 | < 100 | 1000 to 10000
29 | CN(C)c1ccc(OCC(=O)NCC(O)CN2CCc3ccccc3C2)cc1 (configuration not stated) | 101 to 1000 | 101 to 1000 | 10000 to 50000
30 | NC(=O)c1cccc(OCC(=O)NCC(O)CN2CCc3ccccc3C2)c1 (configuration not stated) | 101 to 1000 | 101 to 1000 | 10000 to 50000
31 | O=C(COc1ccc2cnn(C3CCNCC3)c2c1)NCC(O)CN1CCc2ccccc2C1 (configuration not stated) | 101 to 1000 | < 100 | > 20000
32 | CN(C)c1cccc(OCC(=O)NCC(O)CN2CCc3ccccc3C2)c1 (configuration not stated) | 101 to 1000 | < 100 | 1000 to 10000

More lines, main results first:

Row | EC50 [1] [nM] | IC50 (PRMT5/MEP50 complex) [nM] | SMILES | EC50 [2] [nM]
33 | 101 to 1000 | 101 to 1000 | Cn1cnc2cc(OCC(=O)NCC(O)CN3CCc4ccccc4C3)ccc21 (configuration not stated) | 10000 to 50000
34 | < 100 | < 100 | Cn1ncc2c(OCC(=O)NCC(O)CN3CCc4ccccc4C3)cccc21 (configuration not stated) | 1000 to 10000
35 | 101 to 1000 | 101 to 1000 | O=C(COc1cccc(C(=O)N2CCOCC2)c1)NCC(O)CN1CCc2ccccc2C1 (configuration not stated) | 10000 to 50000
36 | 101 to 1000 | < 100 | O=C(COc1cccc2ccccc12)NCC(O)CN1CCc2ccccc2C1 (configuration not stated) | 1000 to 10000
37 | 101 to 1000 | < 100 | O=C(COc1ccccc1OCCN1CCOCC1)NC[C@H](O)CN1CCc2ccccc2C1 | 10000 to 50000
38 | 101 to 1000 | < 100 | Cn1ncc2ccc(OCC(=O)NCC(O)CN3CCc4ccccc4C3)cc21 (configuration not stated) | 1000 to 10000
39 | 101 to 1000 | < 100 | CC(C)(Oc1cccc2cccnc12)C(=O)NCC(O)CN1CCc2ccccc2C1 (configuration not stated) | 1000 to 10000
40 | < 100 | < 100 | CN1CCOc2cccc(OCC(=O)NCC(O)CN3CCc4ccccc4C3)c21 (configuration not stated) | 101 to 1000
41 | 101 to 1000 | < 100 | O=C(COc1cccc2ccc(N3CCOCC3)nc12)NCC(O)CN1CCc2ccccc2C1 (configuration not stated) | 10000 to 50000
42 | 101 to 1000 | 101 to 1000 | O=C(COc1ccccc1)NC[C@H](O)CN1CCc2ccccc2C1 | 10000 to 50000
43 | 101 to 1000 | < 100 | O=C(COc1c(CN2CCOCC2)ccc2cccnc12)NC[C@H](O)CN1CCc2ccccc2C1 | 10000 to 50000
44 | 101 to 1000 | < 100 | C[C@H](Oc1cccc2cccnc12)C(=O)NC[C@H](O)CN1CCc2ccccc2C1 | 1000 to 10000
45 | < 100 | < 100 | C[C@@H](Oc1cccc2cccnc12)C(=O)NC[C@H](O)CN1CCc2ccccc2C1 | 101 to 1000
46 | < 100 | < 100 | O=C(COc1ccccc1N1CCOCC1)NC[C@H](O)CN1CCc2ccccc2C1 | 1000 to 10000
47 | 101 to 1000 | < 100 | O=C(COc1ccccc1N1CCOCC1)NCC(O)CN1CCc2ccccc2C1 (configuration not stated) | 1000 to 10000
48 | 101 to 1000 | < 100 | CN1CCN(c2ccccc2OCC(=O)NC[C@H](O)CN2CCc3ccccc3C2)CC1 | 1000 to 10000
49 | < 100 | < 100 | O=C(COc1cccc(CN2CCOCC2)c1)NCC(O)CN1CCc2ccccc2C1 (configuration not stated) | 1000 to 10000
50 | < 100 | < 100 | O=C(COc1cccc(NC2CCOCC2)c1)NCC(O)CN1CCc2ccccc2C1 (configuration not stated) | 1000 to 10000
51 | 101 to 1000 | < 100 | C[C@@H](Oc1cccc2cccnc12)C(=O)NC[C@@H](O)CN1CCc2ccccc2C1 | 1000 to 10000
52 | < 100 | < 100 | CC(Oc1cccc2cccnc12)C(=O)NCC(O)CN1CCc2ccccc2C1 (configuration not stated) | 101 to 1000
53 | 101 to 1000 | < 100 | O=C(COc1ccccc1N1CCNCC1)NCC(O)CN1CCc2ccccc2C1 (configuration not stated) | 1000 to 10000
54 | < 100 | < 100 | O=C(COc1cccc2nccnc12)NCC(O)CN1CCc2ccccc2C1 (configuration not stated) | 1000 to 10000
